The values that follow come from patent US20120115782A1, “COMPOSITIONS AND METHODS FOR TREATING OR INHIBITING LIVER INJURY” (Yale University, priority 2009, published 2012).

Molecules are shown by their SMILES.

In assay [1] the test system is APAP induced hepatotoxicity in wild-type mice. The assay is described as follows: Acetaminophen (APAP) induced hepatotoxicity in mice: survival, serum ALT, liver histology. It is filed as in vivo, mouse (C57BL/6). The method, then: Animals. C57BL/6 mice were purchased from commercial sources. NALP3 −/−, IL-18 −/− ASC −/−, IPAF −/− and TLR9 −/− mice were backcrossed nine generations onto the C57BL/6 background. Caspase 1 −/− mice were backcrossed 5-6 generations onto the C57BL/6 background. These mice have been described previously (39, 40). IL-1β was neutralized in by using the anti-IL-1β antibody from clone B122 (a gift of R. Schreiber, Washington University) at a dose of 0.2 mg/mouse iv twice a day for a total of 48 hours after giving APAP. Control mice received Armenian hamster isotype control antibody. For survival experiments animals were euthanized when they became moribund using criteria of lack of response to stimuli or lack of righting reflex. Animal protocols were approved by the Yale University animal care and use committee. [include references for IPAF−/− (M. Lara-Tejero et al. JEM 2006) and IL-18−/−. Need to add TLR9−/− and TLR3−/−] Acetaminophen induced hepatotoxicity. APAP (Sigma, Mo.) solution was made fresh for each experiment in PBS at 20 mg/ml and heated in a water bath to 55° C. to dissolve. APAP was dosed at 500 mg/kg and injected I.P after 15 hrs of starvation. Animals were euthanized by ketamine/xylazine injection at 12 hours for collection of serum, isolation of liver lymphocytes or collection of liver tissue for histology, or they were observed every four hours for 72 hours until they reached criteria for euthanasia (lack of response to stimuli or lack of righting reflex).
Aspirin/clopidogrel/SC-560. Aspirin (Sigma, Mo.) was made fresh for each experiment. For dosing prior to APAP it was dissolved in single deionized water at 60 mg/l and heated to 42° C. with rapid stirring to dissolve, then rapidly placed in an ice water bath to cool. Aspirin in water was given to the mice 60-72 hours prior to APAP injection. Assuming water consumption of 3-5 ml per day this dose would be equivalent to a 300-500 mg dose in an 80 kg adult human. For co-administration of APAP and aspirin, aspirin was gavaged at a dose of 6 mg/kg in a volume of 100 ul of water immediately after ip injection of APAP. Clopidogrel (Gilead Pharmaceuticals, CA.) was dissolved in PBS at 6 mg/ml and administered by gavage of 100 ul, 30 mg/kg, every 24 hours beginning 48 hours prior and ending 24 hours after APAP injection. Cox-1 inhibitor (SC-560). SC-560 (Cayman chemical, MI) was dissolved at 50 mg/ml in DMSO and further dissolved in PBS in order to gavage a dose of 5 mg/kg in 100 ul. It was administered twice per day beginning 60 hours prior to Tylenol and continued for 48 hours after APAP injection as previously established (41).
Uric Acid Peritonitis. Peritonitis was induced with uric acid crystals as previously described by injecting 3 mg of MSU intraperitoneally per mouse (27). Three hours after injection peritoneal lavage was performed on mice euthanized by isoflurane inhalation. Neutrophil infiltration was evaluated by flow cytometry. The percent of Gr-1 (BD Pharmingen, CA) positive cells was multiplied by the total cell counts. Liver sinusoidal endothelial cell (LSEC) isolation. After in-situ pronase digestion the non-parenchymal cell suspension is centrifuged for 5 min at 100 g to remove most of the parenchymal cells. This process is repeated until no pellet is observed. The supernatant enriched in LSEC is centrifuged for 10 min at 350 g. The pellet is resuspended in PBS and centrifuged for 10 min at 350 g. The cells are resuspended in. PBS and layered (3.3 ml) on the top of two-step percoll gradient (put the 5 ml of 50% percoll at the bottom and put the 6.6 ml of 25% percoll at the top). The gradients are centrifuged at 900 g for 20 min and the intermediate layer included LSEC is collected and cultured in the media (EGM™-2MV—Microvascular Endothelial Cell Medium-2, CAMBREX, Charles City, Iowa). ODN2088 and IRS 954 injection.

Assay [2] concerns pro-IL-1β transcript. The assay is described as follows: Q-PCR of whole liver 12 hours after APAP: pro-IL-1β. The class given is in vivo, mouse. Conditions: aspirin pre-treatment in drinking water. The method, then:
(§1) Uric Acid Peritonitis. Peritonitis was induced with uric acid crystals as previously described by injecting 3 mg of MSU intraperitoneally per mouse (27). Three hours after injection peritoneal lavage was performed on mice euthanized by isoflurane inhalation. Neutrophil infiltration was evaluated by flow cytometry. The percent of Gr-1 (BD Pharmingen, CA) positive cells was multiplied by the total cell counts. Liver sinusoidal endothelial cell (LSEC) isolation. After in-situ pronase digestion the non-parenchymal cell suspension is centrifuged for 5 min at 100 g to remove most of the parenchymal cells. This process is repeated until no pellet is observed. […] TLR9 antagonist (ODN2088, 50 microg×2) or PBS, were injected ip into wild-type mice immediately after and at 6 hours after APAP injection and total mouse liver was obtained 12 hours after APAP injection for quantitative Q-PCR for IL-1β. […] Quantitative Real-time PCR. […] Expression of glyceraldehyde 3-phosphate dehydrogenase was used to standardize the samples, and the results were expressed as a ratio compared with untreated HSCs. Quantitative Real-time PCR for mRNA expression of IL-18, IL-1β, TNF-α and IFN-γ. […] Quantitative real-time PCR (Q-PCR) was performed for IL-18 and IL-1β using commercial primer-probe sets (Applied Biosystems, CA) and the Applied Biosystem 7500 real time PCR system. […]

Assay [3] concerns pro-IL-18 transcript. The experiment in a line: Q-PCR of whole liver 12 hours after APAP: pro-IL-18. The class given is in vivo, mouse. The following applies: aspirin pre-treatment in drinking water. The method, then:
as §1

The subject of assay [4] is TNF-α. The assay is described as follows: Q-PCR of whole liver after APAP: TNF-α. The class given is in vivo, mouse. The following applies: aspirin treatment. As for the experimental part: as §1
For assay [5], the system named is IFN-γ. The experiment in a line: Q-PCR of whole liver after APAP: IFN-γ. The following applies: aspirin treatment. It is filed as in vivo, mouse. As for the experimental part: as §1
Assay [6] relates to IL-1β. The experiment in a line: ELISA for serum IL-1β after APAP. The class given is in vivo, mouse. Conditions: ASA in drinking water. A general note: In an ELISA, binding on a coated surface is turned into a signal by an enzyme label.
In assay [7] the test system is NALP3 inflammasome. The assay is described as follows: Uric acid (MSU crystal) peritonitis, model of NALP3 inflammasome activation. The class given is in vivo. Conditions: low dose aspirin (60 mg/l) in drinking water three days prior; lavage 3 hours after MSU 3 mg/mouse ip. The method, then:
as §1

Assay [8] relates to THP1 cells (pro-IL-1β transcript). The experiment in a line: THP1 cells stimulated with LPS, real-time PCR for pro-IL-1β. The class given is cell-based, human. Conditions: overnight with aspirin (1.5 mM, 0.15 mM), then LPS 10 μg/ml for 8 hours. The method, then:
as §1

The test system of assay [9] is APAP toxicity in mice and rats. Conditions: aspirin 200-600 mg/kg; cited from earlier work.

As for `COC(=O)[C@H](c1ccccc1Cl)N1CCc2sccc2C1` [clopidogrel], the “protection against APAP toxicity (survival)” value in [1] (clopidogrel gavage 30 mg/kg every 24 hrs, from 48 hours prior to 24 hours after APAP) is listed as “did not protect”.
`COc1ccc(-n2nc(C(F)(F)F)cc2-c2ccc(Cl)cc2)cc1` [SC-560]: the “protection against APAP toxicity (survival)” value in [1] (SC-560 gavage 5 mg/kg twice daily, from 60 hours prior to 48 hours after APAP) was “did not protect”.
Turning to `CC(=O)Oc1ccccc1C(=O)O` [aspirin, acetylsalicylic acid], the “survival after APAP” value in assay [1] (aspirin 60 mg/l in drinking water for 3 days before APAP 500 mg/kg ip, 72 hours) was “markedly improved survival”. Moreover, the “survival, aspirin given concordantly with APAP” value in assay [1] (aspirin gavaged 6 mg/kg immediately after ip APAP) was found to be 43%+/−11%. In addition, the “liver histology (H&E) 12 hours after APAP” value in [1] (aspirin in drinking water three days prior to APAP) is “significant reduction in APAP induced liver injury and hemorrhage”. Moreover, in assay [1] (pre-treatment with aspirin in drinking water), the “serum ALT 12 hrs after APAP” value is reported as “significantly lower serum ALT”. Also, the “increase in pro-IL-1β message by APAP, whole liver” value in assay [2] is “reduced to normal levels”. For the same compound, the “increase in pro-IL-18 message by APAP, whole liver” value in assay [3] is on record as “reduced to normal levels”. The “expression of TNF-α, whole liver after APAP” value in [4] is “reduced”. The “expression of IFN-γ, whole liver after APAP” value in [5] is given as “reduced”. Further, the “serum IL-1β levels induced by APAP” value in assay [6] was “significant reduction”. For the same compound, in [7], the “neutrophil exudates (Gr-1 positive) in MSU peritonitis” value was “eightfold reduction”. Also, in assay [8], the “up-regulation of pro-IL-1β transcript by LPS in THP1 cells” value is “reduced”. In assay [9], the “liver injury from APAP” value is “reduce liver injury” and the “survival from APAP” value is reported as “not improve survival”.
